In ChEMBL document CHEMBL5131421, “Cadinane Sesquiterpenoids and Their Glycosides from Alangium chinense That Inhibit Spontaneous Calcium Oscillations” (J Nat Prod, 2022):

Columns and labels:
[1] = Neuroprotective activity in primary neocortical neuron (unknown origin) assessed as inhibition of 4-AP-induced spontaneous calcium channel oscillation amplitude measured after 15 min by Fluo-4AM dye based fluorescence assay; assay type: functional, cell-based
[2] = Neuroprotective activity in primary neocortical neuron (unknown origin) assessed as inhibition of 4-AP-induced spontaneous calcium channel oscillation frequency measured after 15 min by Fluo-4AM dye based fluorescence assay; assay type: functional, cell-based
[3] = Primary neocortical neuron, 0.25 h

Row | SMILES | IC50 [1, 3] [µM] | IC50 [2, 3] [µM] | IC50 ([1]; primary neocortical neuron) [µM] | IC50 ([2]; primary neocortical neuron) [µM]
1 | Cc1cc2c(cc1O)C(=O)[C@](C)(c1ccc(O)c(O)c1)C=C2C(C)C | 8.03 | 1.91 | – | –
2 | Cc1cc2c(cc1O)C(=O)[C@@](C)(c1ccc(O)c(O)c1)C=C2C(C)C | 5.77 | 2.58 | – | –
3 | Cc1cc2c(cc1O)[C@@](C)(c1ccc(O)c(O)c1)C(=O)C=C2C(C)C | 7.38 | 3.09 | – | –
4 | Cc1cc2c(cc1O)[C@](C)(c1ccc(O)c(O)c1)C(=O)C=C2C(C)C | 5.36 | 2.05 | – | –
5 | Cc1cc2c(cc1O)C(=O)C(C)(c1ccc(O)c(O)c1)C=C2C(C)C (racemic) | 6.1 | 0.97 | – | –
6 | Cc1cc2c(cc1O)C(C)(c1ccc(O)c(O)c1)C(=O)C=C2C(C)C (racemic) | 5.56 | 3.45 | – | –
7 | NC1=N[C@H](O)[C@H]2[C@H]3O[C@]4(O)O[C@@H]([C@@H](O)[C@@]2(N1)[C@@H]4O)[C@]3(O)CO [TETRODOTOXIN] | – | – | 0.00169 | 0.00493
